In US8962627B2, “Oxime derivatives and their use as allosteric modulators of metabotropic glutamate receptors” (Prestwick Chemical, Inc., priority 2009, dated 2015):
pEC50: −log10 of the molar value. Where a name gives a salt, the structure may show the parent alone.

Tests used:
[1] = target: T1, human mGluR4 transiently over-expressed in HEK-293 cells (Homo sapiens, UniProt Q14833); assay: Human mGluR4 positive allosteric modulator evaluation using Ca++ functional assay; type: cell-based; conditions: HEK-293 cells co-transfected with hmGluR4 and chimeric G protein; EC10 glutamate; intracellular calcium (Fluo4AM); read-out: mean EC50 of agonist/positive allosteric modulator activity on mGluR4
T1 construct: expressed in transfected cells; host or cells: HEK-293 cells, transient co-transfection by electroporation
Experimental: Human mGluR4 Positive Allosteric Modulator Evaluation Using Ca^++ Functional Assay
Compounds of the present invention were tested successively for their agonist and positive allosteric modulator activities on human mGluR4 transiently over-expressed in HEK-293 cells. They exert agonist activity if, by themselves in absence of the endogenous glutamate, they are able to activate mGluR4; and they exert positive allosteric modulator activity if they increase the action of the endogenous glutamate.
Cell Culture and Transfection
HEK-293 cells were maintained in Modified Eagle's Medium supplemented with 10% Foetal Calf Serum, 1% Penicillin/Streptomycin and 1% non essential amino acids at 37° C./5% CO2.
Cells were co-transfected by electroporation with two DNA plasmids encoding hmGluR4 and a chimeric G protein allowing redirection of the activation signal to intracellular calcium pathway. Cells were plated after transfection onto polyornithine coated, clear bottom, black-walled, 96-well plates and cultured for 24 h.
Calcium Assay EC50 Determination
Receptor activity was detected by changes in intracellular calcium measured using the fluorescent Ca^2+ sensitive dye, Fluo4AM (Molecular Probes).
The day of the assay, medium was aspirated and replaced during 3 hours by medium without serum supplemented with 1% Glutamax, 1% Penicillin/Streptomycin and 1% non essential amino acids. Then, cells were washed with freshly prepared buffer B (HBSS 1×(PAA), Hepes 20 mM, MgSO4-7H2O 1 mM, Na2CO3 3.3 mM, CaCl2-2H2O 1.3 mM, 0.5% BSA, Probenecid 2.5 mM) and loaded at 37° C. in 5% CO2 for 1.5 hours with buffer B containing 1 μM Fluo4AM 0.1 mg/mL Pluronic Acid, 7 μg/mL Glutamate Pyruvate Transaminase and 2 mM sodium pyruvate. Afterwards cells were washed twice with buffer B and 50 μL of this buffer were added to each well. Addition of compounds and intracellular Ca^2+ measurements (excitation 485 nm, emission 525 nm) were performed by the fluorescence microplate reader FlexStation (Molecular Devices).
Agonist and positive allosteric modulator activities of compounds were consecutively evaluated on the same cells plate. Agonist activity was first tested during 60 s with the addition of compound alone on the cells. Then, the cells were stimulated by an EC10 glutamate concentration and fluorescence recorded for additional 60 s. EC10 glutamate concentration is the concentration giving 10% of the maximal glutamate response. Agonist and/or positive allosteric modulator activity(ies) were evaluated in comparison to basal signal evoked by EC10 glutamate alone.
For EC50 determination, a dose-response test was performed using 6 to 9 concentrations of each compound of the invention. Dose-response curves were fitted using the sigmoidal dose-response (variable slope) analysis in GraphPad Prism program (Graph Pad Inc) and EC50 of agonist/positive allosteric modulator activity was calculated. Dose-response experiments were all performed in duplicate, two times independently.

T1 sequence (Q14833 33-912): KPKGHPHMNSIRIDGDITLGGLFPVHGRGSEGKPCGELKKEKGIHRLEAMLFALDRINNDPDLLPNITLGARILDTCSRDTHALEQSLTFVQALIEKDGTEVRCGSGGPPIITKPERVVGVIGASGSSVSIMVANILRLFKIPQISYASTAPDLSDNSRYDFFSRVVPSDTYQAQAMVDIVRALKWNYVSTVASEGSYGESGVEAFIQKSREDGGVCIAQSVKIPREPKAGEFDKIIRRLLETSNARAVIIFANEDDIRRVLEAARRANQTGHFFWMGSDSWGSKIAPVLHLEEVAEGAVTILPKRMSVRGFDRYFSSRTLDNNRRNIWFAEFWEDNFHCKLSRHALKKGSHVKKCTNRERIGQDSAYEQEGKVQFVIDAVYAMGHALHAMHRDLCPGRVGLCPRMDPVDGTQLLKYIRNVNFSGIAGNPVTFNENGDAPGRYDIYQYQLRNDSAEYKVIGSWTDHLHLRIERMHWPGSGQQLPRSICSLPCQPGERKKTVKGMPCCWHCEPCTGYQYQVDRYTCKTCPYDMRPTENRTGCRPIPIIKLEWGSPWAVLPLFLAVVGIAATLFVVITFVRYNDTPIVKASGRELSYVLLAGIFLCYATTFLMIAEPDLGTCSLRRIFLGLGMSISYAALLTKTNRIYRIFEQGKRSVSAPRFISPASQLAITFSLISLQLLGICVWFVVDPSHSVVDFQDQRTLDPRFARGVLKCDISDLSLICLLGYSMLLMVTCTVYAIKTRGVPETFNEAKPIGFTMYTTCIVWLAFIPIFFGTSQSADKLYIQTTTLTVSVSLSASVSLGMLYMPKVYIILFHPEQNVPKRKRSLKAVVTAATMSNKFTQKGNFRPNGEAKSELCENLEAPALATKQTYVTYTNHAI

| SMILES | melting point | pEC50 [1] |
| --- | --- | --- |
| Cl.ON=c1cc(-c2cn3cccc3cn2)oc2ccc(OCCn3ccnc3)cc12 [Example 125, 6-(2-Imidazol-1-yl-ethoxy)-2-pyrrolo[1,2-a]pyrazin-3-yl-chromen-4-one oxime, hydrochloride] | 238 to 240 °C | > 6.00 |
| ON=c1cc(-c2cc3cccn3cn2)oc2ccc(OCCc3ccc(Cl)cc3)cc12 [Example 140, 6-[2-(4-Chloro-phenyl)-ethoxy]-2-pyrrolo[1,2-c]pyrimidin-3-yl-chromen-4-one oxime] | 247 to 249 °C | > 6.00 |
| ON=c1cc(-c2cc3ccccc3cn2)oc2cc(C#Cc3cccc(O)c3)ccc12 (mixture of isomers) [Example 30, 7-(3-hydroxyphenyl)ethynyl-2-isoquinolin-3-yl-chromen-4-one oxime] | 255 to 259 °C | > 5.30 |
| ON=c1cc(-c2cc3ccccc3cn2)oc2cc(C#Cc3ccncc3)ccc12 (mixture of isomers) [Example 26, 2-isoquinolin-3-yl-7-(pyridin-4-yl)ethynyl-chromen-4-one oxime] | 265 to 270 °C | > 5.30 |
| ON=c1cc(-c2cc3cccn3cn2)oc2ccc(OCCN3CCC(F)(F)CC3)cc12 [Example 103, hydrochloride] |  | > 6.00 |
| ON=c1cc(-c2cc3ccccc3cn2)oc2cc(CCc3ccccc3)ccc12 (mixture of isomers) [Example 22, 2-isoquinolin-3-yl-7-phenethyl-chromen-4-one oxime] |  | > 5.30 |
| CCN1CCN(CCOc2ccc3oc(-c4cc5cccn5cn4)cc(=NO)c3c2)CC1.Cl.Cl [Example 121, 6-[2-(4-ethyl-piperazin-1-yl-ethoxy]-2-pyrrolo[1,2-c]pyrimidin-3-yl-chromen-4-one oxime, dihydrochloride] |  | > 5.30 |
| ON=c1cc(-c2cc3cccn3cn2)oc2cccc(OCCCN3CCOCC3)c12 [Example 157, 5-(3-Morpholin-4-yl-propoxy)-2-pyrrolo[1,2-c]pyrimidin-3-yl-chromen-4-one oxime, hydrochloride] |  | > 5.30 |
| ON=c1cc(-c2cc3cccn3cn2)oc2ccc(OCCc3ccc(F)cc3)cc12 [Example 109, 6-[2-(4-fluoro-phenyl)-ethoxy]-2-pyrrolo[1,2-c]pyrimidin-3-yl-chromen-4-one oxime, hydrochloride] |  | > 6.00 |
| COCCOc1ccc2oc(-c3cc4cccn4cn3)cc(=NO)c2c1 [Example 67, 6-methoxyethoxy-2-Pyrrolo[1,2-c]pyrimidin-3-yl-chromen-4-one oxime] |  | > 6.00 |
| ON=c1cc(-c2cc3cccn3cn2)oc2ccc(CCCN3CCOCC3)cc12 [Example 106, 6-(3-morpholin-4-yl-propyl)-2-pyrrolo[1,2-c]pyrimidin-3-yl-chromen-4-one oxime, hydrochloride] |  | > 6.00 |
| CC1CCCN1CCOc1ccc2oc(-c3cc4cccn4cn3)cc(=NO)c2c1 (stereo not shown) [Example 92, 6-[2-(2-methyl-pyrrolidin-1-yl)-ethoxy]-2-pyrrolo[1,2-c]pyrimidin-3-yl-chromen-4-one oxime, hydrochloride] |  | > 5.30 |
| ON=c1cc(-c2cc3cccn3cn2)oc2ccc(OCCN3CCC(C(F)(F)F)CC3)cc12 [Example 113, 2-pyrrolo[1,2-c]pyrimidin-3-yl-6-[2-(4-trifluoromethyl-piperidin-1-yl)-ethoxy]chromen-4-one oxime, hydrochloride] |  | > 6.00 |
| C[C@@H]1CN(CCOc2ccc3oc(-c4cc5cccn5cn4)cc(=NO)c3c2)C[C@H](C)O1 [Example 112, 6-[2-(cis-2,6-dimethyl-morpholin-4-yl)-ethoxy]-2-pyrrolo[1,2-c]pyrimidin-3-yl-chromen-4-one oxime, hydrochloride] |  | > 6.00 |
| ON=c1cc(-c2cc3cccn3cn2)oc2ccc(OCCCOc3ccccc3)cc12 [Example 162, 6-(3-Phenoxy-propoxy)-2-pyrrolo[1,2-c]pyrimidin-3-yl-chromen-4-one oxime] |  | > 6.00 |
| ON=c1cc(-c2cc3cccn3cn2)oc2ccc(OCCCOc3ccc(F)cc3)cc12 [Example 161, 6-[3-(4-Fluoro-phenoxy)-propoxy]-2-pyrrolo[1,2-c]pyrimidin-3-yl-chromen-4-one oxime] |  | > 6.00 |
| ON=c1cc(-c2cc3ccccc3cn2)oc2cc(C#Cc3ccccc3)ccc12 (mixture of isomers) [Example 20, 2-isoquinolin-3-yl-7-phenylethynyl-chromen-4-one oxime] |  | > 6.00 |

| SMILES | melting point | pEC50 [1] |
| --- | --- | --- |
| ON=c1cc(-c2cc3cccn3cn2)oc2ccc(OCCN3C[C@@H]4C[C@H]3CO4)cc12 [Example 111, 6-[(1S,4S)-2-(2-oxa-5-aza-bicyclo[2.2.1]hept-5-yl)-ethoxy]-2-pyrrolo[1,2-c]pyrimidin-3-yl-chromen-4-one oxime, hydrochloride] |  | > 6.00 |
| ON=c1cc(-c2cc3cccn3cn2)oc2cc(OCCCN3CCOCC3)ccc12 [Example 143, 7-(3-Morpholin-4-yl-propoxy)-2-pyrrolo[1,2-c]pyrimidin-3-yl-chromen-4-one oxime hydrochloride] |  | > 6.00 |
| O=C(COc1ccc2oc(-c3cc4cccn4cn3)cc(=NO)c2c1)Nc1ccc(F)cn1 [Example 152, N-(5-Fluoro-pyridin-2-yl)-2-{4-hydroxyimino-2-pyrrolo[1,2-c]pyrimidin-3-yl-4H-chromen-6-yloxy}-acetamide] |  | > 6.00 |
| ON=c1cc(-c2cc3nccn3cn2)oc2ccccc12 (mixture of isomers) [Example 73, 2-Imidazo[1,2-c]pyrimidin-7-yl-chromen-4-one oxime] |  | > 6.00 |
| ON=c1cc(-c2cc3cccn3cn2)oc2ccc(OCCn3ccnc3)cc12 [Example 105, 6-(2-imidazol-1-O-ethoxy)-2-pyrrolo[1,2-c]pyrimidin-3-yl-chromen-4-one oxime] |  | > 6.00 |
| ON=c1cc(-c2cc3cccn3cn2)oc2ccc(/C=C\CN3CCOCC3)cc12 [Example 107] |  | > 6.00 |
| COc1ccc(C#Cc2ccc3c(=NO)cc(-c4cc5ccccc5cn4)oc3c2)cc1 (mixture of isomers) [Example 31, 2-isoquinolin-3-yl-7-(4-methoxyphenyl)ethynyl-chromen-4-one oxime] |  | > 5.30 |
| ON=c1cc(-c2cc3ccccc3cn2)oc2ccc(C3CC3)cc12 (mixture of isomers) [Example 34, 6-cyclopropyl-2-isoquinolin-3-yl-chromen-4-one oxime] |  | > 5.30 |
| C#Cc1ccc2c(=NO)cc(-c3cc4ccccc4cn3)oc2c1 (mixture of isomers) [Example 23, 7-ethynyl-2-isoquinolin-3-yl-chromen-4-one oxime] |  | > 6.00 |
| ON=c1cc(-c2cc3cccn3cn2)oc2ccc(O)cc12 [Example 81, 6-Hydroxy-2-pyrrolo[1,2-c]pyrimidin-3-yl-chromen-4-one oxime] |  | > 6.00 |
| CNc1cccc(C#Cc2ccc3c(=NO)cc(-c4cc5ccccc5cn4)oc3c2)c1 (mixture of isomers) [Example 51, 2-Isoquinolin-3-yl-7-{3-methylaminophenylethynyl}-chromen-4-one oxime] |  | > 6.00 |
| ON=c1cc(-c2cc3cccn3cn2)oc2cc(OCCN3CCOCC3)ccc12 [Example 142, 7-(2-Morpholin-4-yl-ethoxy)-2-pyrrolo[1,2-c]pyrimidin-3-yl-chromen-4-one oxime, hydrochloride] |  | > 6.00 |
| ON=c1cc(-c2cc3cccn3cn2)oc2ccc(Br)cc12 (mixture of isomers) [Example 66, 6-bromo-2-Pyrrolo[1,2-c]pyrimidin-3-yl-chromen-4-one oxime] |  | > 5.30 |
| O=C(COc1ccc2oc(-c3cc4cccn4cn3)cc(=NO)c2c1)Nc1ccc(F)cc1 [Example 150, N-(4-Fluoro-phenyl)-2-{4-hydroxyimino-2-pyrrolo[1,2-c]pyrimidin-3-yl-4H-chromen-6-yloxy}-acetamide] |  | > 6.00 |
| Cc1c(-c2cc3ccccc3cn2)oc2ccccc2c1=NO [Example 71, 2-Isoquinolin-3-yl-3-methyl-chromen-4-one oxime] |  | > 5.30 |
| ON=c1cc(-c2cc3sccc3cn2)oc2ccc(OCCc3ccc(F)cc3)cc12 [Example 130, 6-[2-(4-Fluoro-phenyl)-ethoxy]-2-thieno[3,2-c]pyridin-6-yl-chromen-4-one oxime] |  | > 6.00 |
